In brackets after ≈: the same amount, converted by molar mass.
Columns and labels:
[1] = test system: Human alphaherpesvirus 2; experiment: Evaluated for minimum inhibitory concentration against G,196, Lyons strains of Herpes simplex virus (HSV-2) in primary rabbit kidney cells; format: functional
[2] = test system: Vero; experiment: Evaluated for minimum inhibitory concentration against Vero cells (African green monkey) infected with PV-3, RV-1, SV, Coxs B4, SFV virus; format: functional; details: Chlorocebus sabaeus
[3] = test system: Vesicular stomatitis virus; experiment: Evaluated for minimum inhibitory concentration against Vesicular stomatitis virus (VSV) in primary rabbit kidney cells; format: functional
[4] = test system: Human alphaherpesvirus 1; experiment: Evaluated for minimum inhibitory concentration against TK-B2006 strain of Herpes simplex virus (HSV-1) in primary rabbit kidney cells; format: functional
[5] = test system: HeLa; experiment: Evaluated for minimum inhibitory concentration against HeLa cells (human carcinoma) infected with VSV, Coxs, B4, polio-1 virus; format: functional
[6] = test system: Vaccinia virus; experiment: Evaluated for minimum inhibitory concentration against Vaccinia virus (VV) in primary rabbit kidney cells; format: functional; details: Orthopoxvirus vaccinia
[7] = test system: Human alphaherpesvirus 1; experiment: Evaluated for minimum inhibitory concentration against KOS, F, McIntyre strains of Herpes simplex virus (HSV-1) in primary rabbit kidney cells; format: functional
[8] = test system: Human immunodeficiency virus 1; experiment: Evaluated for minimum inhibitory concentration (MIC) against MT-4 cells of human immunodeficiency virus type-1 (HIV-1); format: functional, MT4
[9] = test system: Vesicular stomatitis virus; experiment: Evaluated for minimum inhibitory concentration (MIC) against Vesicular stomatitis virus (VSV); format: functional

Structure (SMILES) | MIC [1] | MIC [2] | MIC [3] | MIC [4] | MIC [5] | MIC [6] | MIC [7] | MIC [8] | MIC [9]
Cc1cn([C@@H]2C[C@H](CO)[C@H](O)C2)c(=O)[nH]c1=O | > 400 µg/mL | > 200 µg/mL | > 400 µg/mL | > 400 µg/mL | > 400 µg/mL | > 400 µg/mL | > 400 µg/mL | > 250 µg/mL | –
Cc1cn([C@@H]2C[C@H](CO)[C@@H](O)C2)c(=O)[nH]c1=O | 2 µg/mL (≈ 8.32 µM) | > 100 µg/mL | > 200 µg/mL | 40 µg/mL (≈ 166 µM) | > 100 µg/mL | 2 µg/mL (≈ 8.32 µM) | 0.2 µg/mL (≈ 0.832 µM) | – | –
Nc1ncnc2c1ncn2[C@@H]1C[C@H](CO)[C@@H](O)C1 | 20 µg/mL (≈ 80.2 µM) | > 100 µg/mL | > 400 µg/mL | 100 µg/mL (≈ 401 µM) | > 100 µg/mL | 100 µg/mL (≈ 401 µM) | 2 µg/mL (≈ 8.02 µM) | > 50 µg/mL | –
Cc1cn(C2CC3OCC2C3CO)c(=O)[nH]c1=O (stereo unspecified) | > 400 µg/mL | > 400 µg/mL | > 400 µg/mL | > 400 µg/mL | > 400 µg/mL | > 400 µg/mL | > 400 µg/mL | > 250 µg/mL | –
Cc1cn([C@H]2CC[C@@H](CO)C2)c(=O)[nH]c1=O | > 400 µg/mL | > 400 µg/mL | > 400 µg/mL | > 400 µg/mL | > 400 µg/mL | > 400 µg/mL | > 400 µg/mL | > 250 µg/mL | –
Cc1cn([C@H]2C[C@@H](CO)[C@H](O)C2)c(=O)[nH]c1=O | > 400 µg/mL | > 400 µg/mL | > 400 µg/mL | – | > 100 µg/mL | > 400 µg/mL | > 400 µg/mL | > 160 µg/mL | –
Cc1cn([C@H]2C[C@H](O)[C@@H](CO)[C@@H]2C)c(=O)[nH]c1=O | > 400 µg/mL | > 400 µg/mL | – | > 400 µg/mL | > 400 µg/mL | > 400 µg/mL | > 400 µg/mL | > 250 µg/mL | > 400 µg/mL
Nc1nccc2c1ncn2[C@@H]1C[C@H](CO)[C@@H](O)[C@H]1O [3-DEAZAARISTEROMYCIN A] | > 400 µg/mL | 0.7 µg/mL (≈ 2.65 µM) | 0.7 µg/mL (≈ 2.65 µM) | 150 µg/mL (≈ 568 µM) | 2 µg/mL (≈ 7.57 µM) | 0.7 µg/mL (≈ 2.65 µM) | > 400 µg/mL | – | –
O=c1[nH]c(=O)n([C@H]2C[C@H](O)[C@@H](CO)O2)cc1/C=C/Br [BRIVUDINE] | 7 µg/mL (≈ 21 µM) | > 400 µg/mL | > 400 µg/mL | > 200 µg/mL | > 400 µg/mL | 20 µg/mL (≈ 60 µM) | 0.02 µg/mL (≈ 0.06 µM) | – | –
NC(=O)c1ncn([C@@H]2O[C@H](CO)[C@@H](O)[C@H]2O)n1 [RIBAVIRIN] | > 400 µg/mL | 150 µg/mL (≈ 614 µM) | 300 µg/mL (≈ 1230 µM) | > 400 µg/mL | 20 µg/mL (≈ 81.9 µM) | 10 µg/mL (≈ 40.9 µM) | > 400 µg/mL | – | –
Cc1cn([C@H]2C[C@H](N=[N+]=[N-])[C@@H](CO)O2)c(=O)[nH]c1=O [ZIDOVUDINE] | – | – | – | – | – | – | – | 0.001 µg/mL (≈ 0.00374 µM) | –
